Experimental data taken from patent publication US8975265B2, “Substituted imidazo[1,2-a]pyrimidines and —pyridines” (Bayer Intellectual Property GmbH, priority 2010, dated 2015).
Where two headings read alike, the source gives them in different places.

Tests used:
[1] = molecular target: His-tagged human recombinant kinase full-length Akt1 (Homo sapiens (Human), UniProt P31749); experiment: Akt1 kinase assay (TR-FRET); format: biochemical; details: 10 μM ATP; read-out: Akt1, median IC50
Method in brief: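 Full-length His-tagged Akt1 (about 0.05 ng/μl final) preincubated 15 min at 22 °C with compound in 50 mM TRIS/HCl pH 7.5, 5 mM MgCl2, 1 mM DTT, 0.02% Triton X-100; biotinylated peptide substrate. Phosphopeptide detected by TR-FRET (Eu-chelate antibody to streptavidin-XL665) after 1 h at 22 °C.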

[2] = tested on: p-AKT1/2/3-S473 in KPL4 breast tumour cell line; experiment: Cellular p-AKT1/2/3-S473 assay; format: cell-based; details: KPL4 breast tumour cell line, 2 hours treatment; read-out: pAKT-S743 median IC50
Method in brief: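 KPL4 cells (PIK3CA H1047R, HER2 0/E, hormone independent) were seeded at 60–80% confluency, cultured overnight, then exposed to compound for 2 h at 37 °C. pAKT-S473 and total AKT measured together by MSD Akt Duplex on 20 µg extract; pAKT expressed as % of total AKT, at least duplicate with independent repeats.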

[3] = tested on: KPL-4 breast cancer cell line; experiment: Tumor cell proliferation assay (CellTiter-Glo, 72 h), KPL-4; format: cell-based; details: KPL4, 72h drug exposure
Method in brief: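 KPL-4 cells were treated with compound for 72 h at 37°C. Viability was measured as ATP by CellTiter-Glo luminescence, with a separate t=0 plate read after overnight attachment. A reference compound was run as standard.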

[4] = tested on: p-AKT S473 in PC3 human prostate tumours; experiment: In vivo xenograft mechanism of action study; set-up: species or system athymic nude mice; details: Mus musculus, po, PC3 tumours in nude mice, once 50 mg/kg p.o.
Source text: In Vivo Xenograft Mechanism of Action Study
To this extent PC3 human prostate tumours were xenografted onto athymic nude mice. PC3 tumour cells were cultivated according to ATCC protocols in recommended media contained 10% FCS and harvested for transplantation in a subconfluent (70%) state. 3×10^6 tumour cells suspended in 50% Matrigel were subcutaneously implantated into the inguinal region of male mice. Tumours were allowed to grow to the predetermined size of 60-80 mm^2. When the tumours were approximately in size, the animals were randomized to treatment and control groups (groups size: 9 animals) and treatment was started. Animals were treated once with 50 mg/kg compound or vehicle per oral administration (p.o.) carried out via a gastric tube. Treatment of each animal was based on individual body weight. At 2, 5 and 24 hours post treatment 3 animals each were sacrificed and the PC3 tumours excised. Tumour samples of approximately 5×5×5 mm were lysed on ice in MSD lysis buffer in the presence of protease and phosphatase inhibitors using Tissue Lyzer (Qiagen, Germany). The levels of p-AKT S473 in extracts from tumour tissue were analysed in an ELISA based assay. This assay is based on the “Akt Duplex” of the MULTI-SPOT® Assay System (Fa. Meso Scale Discovery, Cat# N41100B-1) following manufacturers instructions. Each assay used 20 μg of protein extract and measured total AKT and p-AKT content simultaneously in one well. All measurements where at least done in duplicates and confirmed by independent repetition.
Values for P-AKT are expressed as percentage of P-AKT level compared to total-AKT content of the extracts. Vehicle treated tumours were analyzed to determine the basal level of P-AKT in this model and used as a normalization control to determine the % P-AKT relative to vehicle levels.

[5] = tested on: MCF7; experiment: Tumor cell proliferation assay (CellTiter-Glo, 72 h), MCF7; format: cell-based; details: Homo sapiens, 72h drug exposure
Description: (§1) Compounds were tested in a cell-based assay that measures the capacity of the compounds to inhibit tumour cell proliferation following a 72h drug exposure. Cell viability is determined using CellTiter-Glow® (CTG, Promega, cat# G7571/2/3). The CellTiter-Glo® Luminescent Cell Viability Assay is a homogeneous method to determine the number of viable cells in culture. Detection is based on using the luciferase reaction to measure the amount of ATP from viable cells. The amount of ATP in cells correlates with cell viability. Within minutes after a loss of membrane integrity, cells lose the ability to synthesize ATP, and endogenous ATPases destroy any remaining ATP; thus the levels of ATP fall precipitously.
(§2) Cells were plated at 3000-5000 cells/well (depending on the cell lines) in 90 μL growth medium on MTPs (Corning; #3603, black plate, clear flat bottom). For each cell line assayed, cells were plated onto a separate plate for determination of […] at t=0 hour and t=72 hour time points. Following overnight incubation at 37° C., chemiluminescence values for the t=0 samples were determined after adding 10 μl medium and 100 μl CTG solution according to manufacture protocol. Plates for the t=72 hour time points were treated with compounds diluted into growth medium at ten times final concentration added in 10 μL to the cell culture plate. Cells were then incubated for 72 hours at 37° C. Chemiluminescence values for the t=72 hour samples were determined. […] Experiments were controlled using a reference compound as standard.

[6] = tested on: p-4E-BP1-T70 in KPL4 breast tumour cell line; experiment: Cellular p-4E-BP1-T70 assay; format: cell-based; details: 2 hours treatment, read-out: P4EBP1-T70 median IC50
Description: The molecular mechanism of action was investigated in a set of experiments to assess the inhibition of the PI3K-AKT-mTOR pathway in responsive cell lines such as KPL4 breast tumour cell line (PIK3CAH1047R, HER20/E and hormone independent). The phospho-substrates of PI3K-AKT-mTOR axis were used as the read-outs to reflect pathway inhibition. Cells were seeded at 60-80% confluency per well in 96-well cell culture plates. After overnight incubation at 37° C. 5% CO2, cells were treated with compounds and vehicle at 37° C. for 2 hours. Thereafter, cells were lysed in 150 μl lysis buffer and the levels of phospho-AKT at T308 and S473 and p-4E-BP1 at T70 sites were determined with the corresponding AlphaScreen® SureFire® assay kits (Perkin Elmer: 4E-BP1 Assay Kit Cat # TRG4E2S10K; Akt 1/2/3 p-Ser 473 #TGRA4S500 and Akt 1/2/3 p-Thr 308 #TGRA3S500 as well as IgG detection Kit #6760617M) as described in the manuals. All measurements where at least done in duplicates and confirmed by independent repetition.

[7] = tested on: LnCAP; experiment: Tumor cell proliferation assay (CellTiter-Glo, 72 h), LnCAP; format: cell-based; details: Homo sapiens, 72h drug exposure
Description: as §1, §2

[8] = 2 hours post treatment, read-out: P-AKT % relative to control at 2 hours
[9] = 5 hours post treatment, read-out: P-AKT % relative to control at 5 hours

His-tagged human recombinant kinase full-length Akt1, sequence (P31749 whole entry): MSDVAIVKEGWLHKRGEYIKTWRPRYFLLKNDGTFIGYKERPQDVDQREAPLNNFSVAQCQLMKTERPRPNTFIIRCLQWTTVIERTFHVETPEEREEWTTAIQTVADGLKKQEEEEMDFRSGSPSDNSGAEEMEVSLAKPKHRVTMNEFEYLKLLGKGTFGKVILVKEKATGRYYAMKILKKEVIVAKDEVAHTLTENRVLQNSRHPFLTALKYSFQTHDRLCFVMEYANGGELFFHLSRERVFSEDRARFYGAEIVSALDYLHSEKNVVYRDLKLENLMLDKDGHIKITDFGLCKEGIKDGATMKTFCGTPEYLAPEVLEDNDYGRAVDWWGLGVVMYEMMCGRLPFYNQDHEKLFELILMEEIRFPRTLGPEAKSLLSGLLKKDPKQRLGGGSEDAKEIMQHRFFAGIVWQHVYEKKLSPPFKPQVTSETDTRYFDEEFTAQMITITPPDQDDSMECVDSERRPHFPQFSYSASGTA

SMILES | IC50 [1] [µM] | IC50 [2] [µM] | IC50 [3] [µM] | response vs control in vivo at 50 mg/kg [4, 8] [%] | response vs control in vivo at 50 mg/kg [4, 9] [%] | IC50 [5] [µM] | IC50 [6] [µM] | IC50 [7] [µM]
COc1cc(Br)cn2c(-c3ccccc3)c(-c3ccc(C4(N)CCC4)cc3)nc12 [Example 2-52] | 0.019 | 0.049 | 1.5 | 34.9 | 47.9 | 1.1 | – | –
Cc1cc(C)c2nc(-c3ccc(C4(N)CCC4)cc3)c(-c3ccccc3)n2c1 [Example 2-73] | – | 0.235 | 1.8 | 9.1 | 9.3 | 1.7 | 3.98 | –
NC1(c2ccc(-c3nc4c(F)cc(F)cn4c3-c3ccccc3)cc2)CCC1 [Example 2-75] | 0.052 | 0.079 | 1.1 | 5.5 | 6.2 | 0.6 | 1.6 | –
Cc1c(Cl)cn2c(-c3ccccc3)c(-c3ccc(C4(N)CCC4)cc3)nc2c1Br [Example 2-81] | – | 1.1 | 1.8 | 33.6 | 69.6 | 1.7 | 3.48 | –
Cc1cc(-c2cccnc2)c2nc(-c3ccc(C4(N)CCC4)cc3)c(-c3ccccc3)n2c1 [Example 2-90] | – | 0.337 | 1.9 | 51.6 | 53.7 | 1.7 | 1.56 | –
Cc1cc(-c2ccn[nH]2)c2nc(-c3ccc(C4(N)CCC4)cc3)c(-c3ccccc3)n2c1 [Example 2-92] | 0.229 | 1.4 | 4.3 | 34.6 | 22 | 4.3 | 1.57 | –
Cc1cc(-c2cn[nH]c2)c2nc(-c3ccc(C4(N)CCC4)cc3)c(-c3ccccc3)n2c1 [Example 2-93] | – | 0.528 | 2 | 46 | 79.2 | 1.8 | 1.42 | –
Cc1cc(C(N)=O)c2nc(-c3ccc(C4(N)CCC4)cc3)c(-c3ccccc3)n2c1 [Example 2-96] | 0.893 | 1.61 | 10 | 12.2 | 11.4 | 10 | 1.84 | –
NC1(c2ccc(-c3nc4cc(-c5ncc[nH]5)ccn4c3-c3ccccc3)cc2)CCC1 [Example 2-114] | 0.071 | 0.025 | 0.8 | 47 | 57.2 | 0.7 | – | –
NC1(c2ccc(-c3nc4cc(-c5cnc[nH]5)ccn4c3-c3ccccc3)cc2)CCC1 [Example 2-115] | – | 0.192 | 1.8 | – | – | – | – | 1.7
COC(=O)CCc1ccn2c(-c3ccccc3)c(-c3ccc(C4(N)CCC4)cc3)nc2c1 [Example 2-125] | 3.44 | 3.07 | 3.1 | – | – | – | – | 9.9
CCNC(=O)c1ccn2c(-c3ccccc3)c(-c3ccc(C4(N)CCC4)cc3)nc2c1 [Example 2-126] | 0.601 | 0.125 | 1.6 | – | – | – | – | 1
Cn1cncc1-c1ccc2nc(-c3ccc(C4(N)CCC4)cc3)c(-c3ccccc3)n2c1 [Example 2-133] | – | 0.244 | 2 | – | – | – | – | 1.7
Cn1cc(-c2ccc3nc(-c4ccc(C5(N)CCC5)cc4)c(-c4ccccc4)n3c2)cn1 [Example 2-134] | 0.691 | 0.132 | – | – | – | – | – | 1.8
NC1(c2ccc(-c3nc4ccc(Cl)cn4c3-c3ccccc3)cc2)CCC1 [Example 2-140] | – | 0.115 | 1.9 | 26 | 18 | 0.5 | 2.66 | –
CC(=O)c1ccc2nc(-c3ccc(C4(N)CCC4)cc3)c(-c3ccccc3)n2c1 [Example 2-144] | 0.055 | 0.091 | 1.7 | 6.3 | 8 | 1.3 | 1.31 | –
COc1cc(Cl)cn2c(-c3ccccc3)c(-c3ccc(C4(N)CCC4)cc3)nc12 [Example 2-145] | 0.024 | 0.105 | 1 | 33 | 38 | 0.3 | 1.21 | –
COc1cc(OC)c2nc(-c3ccc(C4(N)CCC4)cc3)c(-c3ccccc3)n2c1 [Example 2-146] | – | 0.043 | 0.7 | 17.5 | 22.3 | 0.6 | 0.636 | –
NC(=O)c1cccn2c(-c3ccccc3)c(-c3ccc(C4(N)CCC4)cc3)nc12 [Example 6-0, 2-[4-(1-amino-cyclobutyl)-phenyl]-3-phenyl-imidazo[1,2-a]pyridine-8-carboxylic acid amide] | 0.058 | 0.016 | 0.8 | 5.8 | 6 | 0.4 | 0.62 | –
NC1(c2ccc(-c3nc4ccc(-c5cccnc5O)cn4c3-c3ccccc3)cc2)CCC1 [Example 11-0, 3-{2-[4-(1-amino-cyclobutyl)-phenyl]-3-phenyl-imidazo[1,2-a]pyridin-6-yl}-pyridin-2-ol] | 1.51 | 0.588 | 2.2 | – | – | – | – | 2
Cc1cc(-c2ccc3nc(-c4ccc(C5(N)CCC5)cc4)c(-c4ccccc4)n3c2)[nH]n1 [Example 12-0, 1-{4-[6(5-methyl-2H-pyrazol-3-yl)-3-phenyl-imidazo[1,2-a]pyridin-2-yl]-phenyl}-cyclobutylamine] | 0.688 | 0.339 | 1.9 | – | – | – | – | 1.7
